According to patent US20240132431A1, “METHOD FOR ALKYLATING ACIDIC FUNCTIONAL GROUP” (Chugai Seiyaku Kabushiki Kaisha, priority 2021, published 2024):
Values belong to the molecule of their own block, whether it stands above or below them.

Biological target: T1, Bcl-2 protein (Recombinant Human Bcl-2 Protein) (Homo sapiens, UniProt P10415)
T1 construct: purchased Novus NBP2-34889
Assay: Binding evaluation of mixture library compounds to Bcl-2 using AS-MS (affinity selection mass spectrometry)
Conditions: for ASMS ratio (%) n = 1: replicate n = 1; for ASMS ratio (%) n = 1 / ASMS ratio (%) n = 2: ASMS Ratio(%)=(A−C)/B×100; for ASMS ratio (%) n = 2: replicate n = 2
Method in brief: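 ASMS Ratio (%) was calculated as (A−C)/B×100, where A is the protein sample after SEC, B the protein-free sample without SEC and C the protein-free sample after SEC. Each compound was at […] in a 1200-member pool with 20 μM Bcl-2, incubated 1 h at 23° C.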

[1] = AS-MS on the mixture of 1200 library compounds
[2] = AS-MS, mixture of 1200 compounds, Bcl-2

T1 sequence (P10415 whole entry): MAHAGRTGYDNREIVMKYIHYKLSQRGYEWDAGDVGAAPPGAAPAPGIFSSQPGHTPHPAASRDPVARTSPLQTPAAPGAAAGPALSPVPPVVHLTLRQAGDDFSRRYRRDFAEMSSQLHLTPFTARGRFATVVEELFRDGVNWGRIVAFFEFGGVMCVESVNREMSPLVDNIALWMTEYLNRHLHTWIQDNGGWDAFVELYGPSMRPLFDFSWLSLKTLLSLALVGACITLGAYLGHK

ASMS ratio (%) (n = 1): −3.3%
ASMS ratio (%) (n = 2): 6.3%
Molecule: CCOc1cccc(-c2cc(CN3CCN(c4ccc(C(=O)NS(=O)(=O)c5ccc(NCCSc6ccccc6)c(C(F)(F)F)c5)cc4)CC3)cc(OCC)c2)c1 [B2R055-01, 4-[4-[[3-Ethoxy-5-(3-ethoxyphenyl)phenyl]methyl]piperazin-1-yl]-N-[4-(2-phenylsulfanylethylamino)-3-(trifluoromethyl)phenyl]sulfonylbenzamide]

ASMS ratio (%) n = 1 (AS-MS, mixture library, Bcl-2): 22.0%
ASMS ratio (%) n = 2 (AS-MS, mixture library, Bcl-2): 4.7%
Molecule: CCOc1cncc(-c2cc(CN3CCN(c4ccc(C(=O)NS(=O)(=O)CC56CC7CC(CC(C7)C5)C6)nn4)CC3)cc(OC(F)(F)F)c2)c1 [B2A090-01, N-(1-Adamantylmethylsulfonyl)-6-[4-[[3-(5-ethoxypyridin-3-yl)-5-(trifluoromethoxy)phenyl]methyl]piperazin-1-yl]pyridazine-3-carboxamide]

ASMS ratio (%) n = 1 [1]: 4.1%
ASMS ratio (%) n = 2 [1]: 1.5%
Molecule: CCOc1cccc(-c2ccc(CN3CCN(c4ccc(C(=O)Nc5ccc(OC)cc5)cc4)CC3)cc2C)c1 [B1O047-01, 4-[4-[[4-(3-Ethoxyphenyl)-3-methylphenyl]methyl]piperazin-1-yl]-N-(4-methoxyphenyl)benzamide]

ASMS ratio (%) n = 1 [2]: 6.4%
ASMS ratio (%) n = 2 [2]: 2.3%
Molecule: CCOc1cncc(-c2ccc(C(C)N3CCN(c4ccc(C(=O)NCC56CC7CC(CC(C7)C5)C6)cc4)CC3)c(F)c2)c1 (stereo not drawn) [B1A100-01, N-(1-Adamantylmethyl)-4-[4-[1-[4-(5-ethoxypyridin-3-yl)-2-fluorophenyl]ethyl]piperazin-1-yl]benzamide]

ASMS ratio (%) (n = 1): 6.3%
ASMS ratio (%) (n = 2): −7.0%
Molecule: CCOc1cccc(-c2cc(C(=O)N3CCN(c4ccc(C(=O)NS(=O)(=O)c5ccc(NCCSc6ccccc6)c(C(F)(F)F)c5)cc4)CC3)cc(C(C)(C)C)c2)c1 [B2R037-01, 4-[4-[3-tert-Butyl-5-(3-ethoxyphenyl)benzoyl]piperazin-1-yl]-N-[4-(2-phenylsulfanylethylamino)-3-(trifluoromethyl)phenyl]sulfonylbenzamide]

ASMS ratio (%) (n = 1): 0.0%
Molecule: CCOc1cccc(-c2csc(CN3CCN(c4ccc(C(=O)NS(=O)(=O)CCC(F)(F)F)nn4)CC3)c2)c1 [B2N093-01, 6-[4-[[4-(3-Ethoxyphenyl)thiophen-2-yl]methyl]piperazin-1-yl]-N-(3,3,3-trifluoropropylsulfonyl)pyridazine-3-carboxamide]

ASMS ratio (%) n = 1 [2]: 6.6%
ASMS ratio (%) n = 2 [2]: −1.3%
Molecule: CCOc1cccc(-c2ccc(CN3CCN(c4ccc(C(=O)NCC56CC7CC(CC(C7)C5)C6)nn4)CC3)cc2F)c1 [B1A077-01, N-(1-Adamantylmethyl)-6-[4-[[4-(3-ethoxyphenyl)-3-fluorophenyl]methyl]piperazin-1-yl]pyridazine-3-carboxamide]

ASMS ratio (%) n = 1 (AS-MS, mixture library, Bcl-2): 17.6%
ASMS ratio (%) n = 2 (AS-MS, mixture library, Bcl-2): −2.1%
Molecule: CCOc1cccc(-c2cc(CN3CCN(c4ccc(C(=O)NS(=O)(=O)c5ccc(NCCSc6ccccc6)c([N+](=O)[O-])c5)nn4)CC3)cc(C(F)(F)F)c2)c1 [B2Q087-01, 6-[4-[[3-(3-Ethoxyphenyl)-5-(trifluoromethyl)phenyl]methyl]piperazin-1-yl]-N-[3-nitro-4-(2-phenylsulfanylethylamino)phenyl]sulfonylpyridazine-3-carboxamide]

ASMS ratio (%) (n = 1): 0.0%
ASMS ratio (%) (n = 2): 0.0%
Molecule: CCOc1cncc(-c2cc(OC)c(CN3CCN(c4ccc(C(=O)NS(=O)(=O)CCC(F)(F)F)cc4)CC3)c(OC)c2)c1 [B2N060-01, 4-[4-[[4-(5-Ethoxypyridin-3-yl)-2,6-dimethoxyphenyl]methyl]piperazin-1-yl]-N-(3,3,3-trifluoropropylsulfonyl)benzamide]

ASMS ratio (%) (n = 1): 19.8%
ASMS ratio (%) (n = 2): −10.7%
Molecule: CCOc1cncc(-c2ccc(CN3CCN(c4ccc(C(=O)NS(=O)(=O)c5ccc(NCCSc6ccccc6)c(C(F)(F)F)c5)cc4)CC3)c3ccccc23)c1 [B2R066-01, 4-[4-[[4-(5-Ethoxypyridin-3-yl)naphthalen-1-yl]methyl]piperazin-1-yl]-N-[4-(2-phenylsulfanylethylamino)-3-(trifluoromethyl)phenyl]sulfonylbenzamide]

ASMS ratio (%) n = 1 [2]: 1.1%
ASMS ratio (%) n = 2 [2]: −2.2%
Molecule: CCOc1cccc(-c2ccccc2CN2CCN(c3ccc(C(=O)NCC45CC6CC(CC(C6)C4)C5)cc3)CC2)c1 [B1A045-01, N-(1-Adamantylmethyl)-4-[4-[[2-(3-ethoxyphenyl)phenyl]methyl]piperazin-1-yl]benzamide]

ASMS ratio (%) n = 1 [1]: 4.8%
ASMS ratio (%) n = 2 [1]: 0.9%
Molecule: CCOc1cncc(-c2ccc(C(=O)N3CCN(c4ccc(C(=O)Nc5ccc(OC)cc5)cc4)CC3)c3ccccc23)c1 [B1O036-01, 4-[4-[4-(5-Ethoxypyridin-3-yl)naphthalene-1-carbonyl]piperazin-1-yl]-N-(4-methoxyphenyl)benzamide]

ASMS ratio (%) (n = 1): 16.7%
ASMS ratio (%) (n = 2): 21.2%
Molecule: CCOc1cncc(-c2ccc(CN3CCN(c4ccc(C(=O)NS(=O)(=O)c5ccc(NCCSc6ccccc6)c(C(F)(F)F)c5)nn4)CC3)c(OC)c2)c1 [B2R080-01, 6-[4-[[4-(5-Ethoxypyridin-3-yl)-2-methoxyphenyl]methyl]piperazin-1-yl]-N-[4-(2-phenylsulfanylethylamino)-3-(trifluoromethyl)phenyl]sulfonylpyridazine-3-carboxamide]

ASMS ratio (%) n = 1 [2]: 2.6%
ASMS ratio (%) n = 2 [2]: 1.0%
Molecule: CCOc1cncc(-c2cnn(-c3cc(C(=O)N4CCN(c5ccc(C(=O)NCC(F)(F)F)cc5)CC4)cc(C(F)(F)F)c3)c2)c1 [B1K044-01, 4-[4-[3-[4-(5-Ethoxypyridin-3-yl)pyrazol-1-yl]-5-(trifluoromethyl)benzoyl]piperazin-1-yl]-N-(2,2,2-trifluoroethyl)benzamide]

ASMS ratio (%) (n = 1): −1.8%
ASMS ratio (%) (n = 2): −1.5%
Molecule: CCOc1cccc(C#Cc2ccccc2CN2CCN(c3ccc(C(=O)NS(=O)(=O)CCC(F)(F)F)cc3)CC2)c1 [B2N069-01, 4-[4-[[2-[2-(3-Ethoxyphenyl)ethynyl]phenyl]methyl]piperazin-1-yl]-N-(3,3,3-trifluoropropylsulfonyl)benzamide]

ASMS ratio (%) n = 1 [2]: 0.0%
ASMS ratio (%) n = 2 [2]: 0.0%
Molecule: CCOc1cncc(-c2ccc(CN3CCN(c4ccc(C(=O)NCC(F)(F)F)nn4)CC3)cc2C)c1 [B1K074-01, 6-[4-[[4-(5-Ethoxypyridin-3-yl)-3-methylphenyl]methyl]piperazin-1-yl]-N-(2,2,2-trifluoroethyl)pyridazine-3-carboxamide]

Molecule: 4-[4-[4-(3-Ethoxyphenyl)-3-methylbenzoyl]piperazin-1-yl]-N-propylbenzamide [B1M038-01]
ASMS ratio (%) n = 1 [2]: 0.0%
ASMS ratio (%) n = 2 [2]: 1.7%

ASMS ratio (%) (n = 1): 0.0%
ASMS ratio (%) (n = 2): 0.0%
Molecule: CCOc1cccc(-c2ccc(C(=O)N3CCN(c4ccc(C(=O)NS(=O)(=O)C(C)(C)C)nn4)CC3)cc2F)c1 [B2L005-01, N-tert-Butylsulfonyl-6-[4-[4-(3-ethoxyphenyl)-3-fluorobenzoyl]piperazin-1-yl]pyridazine-3-carboxamide]

ASMS ratio (%) n = 1 (AS-MS, mixture library, Bcl-2): 10.3%
ASMS ratio (%) n = 2 (AS-MS, mixture library, Bcl-2): 0.0%
Molecule: CCOc1cccc(-c2cc(CN3CCN(c4ccc(C(=O)NS(=O)(=O)CC56CC7CC(CC(C7)C5)C6)nn4)CC3)cc(OC(C)C)c2)c1 [B2A083-01, N-(1-Adamantylmethylsulfonyl)-6-[4-[[3-(3-ethoxyphenyl)-5-propan-2-yloxyphenyl]methyl]piperazin-1-yl]pyridazine-3-carboxamide]

ASMS ratio (%) (n = 1): 0.0%
Molecule: CCOc1cccc(-c2ccc(C(=O)N3CCN(c4ccc(C(=O)NS(=O)(=O)C(C)(C)C)cc4)CC3)c3ccccc23)c1 [B2L035-01, N-tert-Butylsulfonyl-4-[4-[4-(3-ethoxyphenyl)naphthalene-1-carbonyl]piperazin-1-yl]benzamide]

ASMS ratio (%) n = 1 [1]: 2.9%
ASMS ratio (%) n = 2 [1]: −1.2%
Molecule: CCOc1cccc(-c2cnn(-c3cc(C(=O)N4CCN(c5ccc(C(=O)Nc6ccc(OC)cc6)nn5)CC4)cc(C(F)(F)F)c3)c2)c1 [B1O021-01, 6-[4-[3-[4-(3-Ethoxyphenyl)pyrazol-1-yl]-5-(trifluoromethyl)benzoyl]piperazin-1-yl]-N-(4-methoxyphenyl)pyridazine-3-carboxamide]

ASMS ratio (%) n = 1 (AS-MS, mixture library, Bcl-2): −5.7%
ASMS ratio (%) n = 2 (AS-MS, mixture library, Bcl-2): 0.0%
Molecule: CCOc1cccc(-c2ccc(C(=O)N3CCN(c4ccc(C(=O)NS(=O)(=O)c5ccc(NCCSc6ccccc6)c([N+](=O)[O-])c5)cc4)CC3)cc2C)c1 [B2Q025-01, 4-[4-[4-(3-Ethoxyphenyl)-3-methylbenzoyl]piperazin-1-yl]-N-[3-nitro-4-(2-phenylsulfanylethylamino)phenyl]sulfonylbenzamide]

ASMS ratio (%) n = 1 [2]: 3.5%
ASMS ratio (%) n = 2 [2]: −0.6%
Molecule: CCOc1cccc(C#Cc2ccccc2CN2CCN(c3ccc(C(=O)NCC(F)(F)F)nn3)CC2)c1 [B1K095-01, 6-[4-[[2-[2-(3-Ethoxyphenyl)ethynyl]phenyl]methyl]piperazin-1-yl]-N-(2,2,2-trifluoroethyl)pyridazine-3-carboxamide]

ASMS ratio (%) (n = 1): 0.0%
ASMS ratio (%) (n = 2): 0.0%
Molecule: CCOc1cccc(-c2cc(CN3CCN(c4ccc(C(=O)NS(C)(=O)=O)cc4)CC3)cc(OCC)c2)c1 [B2I055-01, 4-[4-[[3-Ethoxy-5-(3-ethoxyphenyl)phenyl]methyl]piperazin-1-yl]-N-methylsulfonylbenzamide]

ASMS ratio (%) n = 1 [1]: 7.3%
ASMS ratio (%) n = 2 [1]: −8.8%
Molecule: CCOc1cncc(-c2ccc(CN3CCN(c4ccc(C(=O)N(C)CC56CC7CC(CC(C7)C5)C6)cc4)CC3)cc2C)c1 [B3A048-01, N-(1-Adamantylmethyl)-4-[4-[[4-(5-ethoxypyridin-3-yl)-3-methylphenyl]methyl]piperazin-1-yl]-N-methylbenzamide]
